How the values were obtained:
[1] = Moisture uptake on exposure to room conditions; format: physicochemical; conditions: exposed to room conditions, relative humidity average of 45%, ten days
From the text: In addition to its novel features, the physical form obtained has physical characteristics that make it useful in preparing pharmaceutical preparations, with significant advantages over the forms existing to date. […] In contrast, the anhydrous crystalline form obtained here, when exposed to room conditions, at an relative humidity average of 45%, for ten days, increases its moisture content by only 0.55%, while a reference sample of dihydrated azithromycin increased its moisture content by 1% in the same time.

[2] = Dissolution profile of 500 mg azithromycin tablets; format: physicochemical; conditions: total weight one gram, solvents and procedure similar to capsules in U.S. Pharmacopoeia 2000, page 186
Experimental: In order to test the performance of anhydrous crystalline azithromycin in producing pharmaceutical preparations, 500 mg azithromycin tablets were made with total weight of one gram. The dissolution profile of these tablets was determined, and compared with the dissolution profile of tablets made with the same preparation using dihydrated azithromycin. The used solvents, and the procedure followed, were similar to those indicated for capsules in U.S. Pharmacopoeia 2000, page 186. […] This property gives the anhydrous crystalline form reported herein significant practical advantages over the dihydrated forms, given that increased solubility of the pharmaceutical preparation generally implies greater bioavailabilty of the drug and in consequence increases its therapeutic effectiveness.

[3] = as indicated by patent PCT/US87/0612; cited from earlier work

SMILES: CCC1OC(=O)C(C)C(OC2CC(C)(OC)C(O)C(C)O2)C(C)C(OC2OC(C)CC(N(C)C)C2O)C(C)(O)CC(C)CN(C)C(C)C(O)C1(C)O (stereo not shown) [anhydrous crystalline form, 9-deoxo-9a-methyl-9a-aza-9a-homoerythromycin A]
- increase of moisture content [1]: 0.55%
- dissolution values of tablets compared with tablets made with dihydrated azithromycin [2]: significantly higher

SMILES: CCC1OC(=O)C(C)C(OC2CC(C)(OC)C(O)C(C)O2)C(C)C(OC2OC(C)CC(N(C)C)C2O)C(C)(O)CC(C)CN(C)C(C)C(O)C1(C)O (stereo not shown) [dihydrated azithromycin, 9-deoxo-9a-methyl-9a-aza-9a-homoerythromycin A]
- increase of moisture content [1]: 1%

SMILES: CCC1OC(=O)C(C)C(OC2CC(C)(OC)C(O)C(C)O2)C(C)C(OC2OC(C)CC(N(C)C)C2O)C(C)(O)CC(C)CN(C)C(C)C(O)C1(C)O (stereo not shown) [forms reported by Kobrehel et al., 9-deoxo-9a-methyl-9a-aza-9a-homoerythromycin A]
- hygroscopicity [3]: highly hygroscopes

From US6528492B1, “SINGLE-STEP PROCESS FOR PREPARING 7, 16-DEOXY-2-AZA-10-0-CLADINOSIL-12-0-DESOSAMINIL-4, 5-DIHYDROXY-6-ETHYL-3,5,9,11,13,15-HEXAMETHYLBICYCLE (11.2.1) HEXADECA-1(2)-EN-ONA AND OBTAINING A NEW FORM OF 9-DEOXO-9A-METHYL-9A-AZA-9A-HOMOERYTHROMYCIN A” (Instituto de Investigacion en Quimica Aplicada S.C., priority 2001, dated 2003)
